Experimental data taken from patent US5318776A, “Composition for preventing graying of the hair” (priority 1988, dated 1994).

Columns and labels:
[1] = system: grayed hair (melanocytes); test: Inhibition of generation of grayed hair in stressed black mice; assay type: in vivo; details: Table V, 0.05% test compound in hair tonic, 0.1 ml twice a day, 1 month, control 17.1
Method: It is known that stress is one of the causes of graying of the hair. […] Moreover, the stability of the composition with time was also estimated.
(§1) One month thereafter, regenerated hair was collected from a constant area and the rate (%) of generated grayed hair to all the number of hair collected was estimated. In addition, the aforementioned hair tonic type preparations were allowed to stand at 30° C. for 3 months and the residual amount of the test compounds therein was examined by liquid chromatography as well as the degree of change in smell was also evaluated by means of sensory test.
as §1, with “compositions” for “hair tonic type preparations”, “by” for “by means of”, “test. […] In addition, the abbreviation P means the averaged added molar number of ethylene oxide residues.” for “test.”

[2] = Stability: residual amount of test compound after standing at 30° C. for 3 months, liquid chromatography; assay type: physicochemical; details: for remaining at 2190 h: Table V, 0.05% in hair tonic, 30° C., 3 months, read-out: Stability Residue(%)
Method: as §1
as §1, with “compositions” for “hair tonic type preparations”, “by” for “by means of”, “test. […] In addition, the abbreviation P means the averaged added molar number of ethylene oxide residues.” for “test.”

[3] = Sensory test: degree of change in smell after standing at 30° C. for 3 months;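 as to Stability S.E. (Sensory Evaluation): double circle means no smell deterioration on a four-grade scale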; assay type: physicochemical; details: for Stability S.E. (Sensory Evaluation): Table V, 0.05% in hair tonic, 30° C., 3 months
Method: as §1
as §1, with “compositions” for “hair tonic type preparations”, “by” for “by means of”, “test. […] In addition, the abbreviation P means the averaged added molar number of ethylene oxide residues.” for “test.”

grayed hair = test: Half-Head technique application to scalp of men having grayed hair; assay type: in vivo, men (40 to 60 years old)
Method: Then, the effects of preventing graying of the hair and restoring grayed hair to its natural color were evaluated by comparing the conditions of the portions observed before and after the application of Samples and the results obtained were listed in the following Table VIII. […]
Then, the effectiveness of the hair cream of the invention and that of Comp.

CCCCSc1nc2c(N)ncnc2n1[C@@H]1O[C@@H]2COP(=O)(O)O[C@H]2[C@H]1O [8-butylthio cAMP-Na]
Rate of Grayed Hair (%) [1]: 6.5%
stability (in words) ([2]; Example 7, hair cream): stable
remaining at 2190 h ([2]; hair tonic): 99.9%
quality deterioration such as giving out of bad smell ([3]; Example 7, hair cream): did not cause quality deterioration such as giving out of bad smell
Stability S.E. (Sensory Evaluation) [3]: .circleincircle.
effect of preventing graying of the hair and restoring grayed hair to its natural color (in words) (grayed hair; Example 7, hair cream as in Example 5): the same effect of preventing graying of the hair and restoring grayed hair to its natural color as in Example 5

Nc1ncnc2c1nc(O)n2[C@@H]1O[C@@H]2COP(=O)(O)O[C@H]2[C@H]1O [8-hydroxy cAMP-Na]
Rate of Grayed Hair (%) [1]: 5.6%
stability (in words) ([2]; Example 6, hair tonic): stable
remaining at 2190 h ([2]; hair tonic): 99.7%
quality deterioration such as giving out of bad smell ([3]; Example 6, hair tonic): did not cause quality deterioration such as giving out of bad smell
Stability S.E. (Sensory Evaluation) [3]: .circleincircle.
effect of preventing graying of the hair and restoring grayed hair to its natural color (in words) (grayed hair; Example 6, hair tonic as in Example 3): the same effect of preventing graying of the hair and restoring grayed hair to its natural color as in Example 3

COc1nc2c(N)ncnc2n1[C@@H]1O[C@@H]2COP(=O)(O)O[C@H]2[C@H]1O [8-methoxy cAMP-Na]
Rate of Grayed Hair (%) [1]: 4.5%
remaining at 2190 h ([2]; hair tonic): 99.9%
Stability S.E. (Sensory Evaluation) [3]: .circleincircle.
effect of preventing graying of the hair and restoring grayed hair to its natural color (in words) (grayed hair; Examples 3 to 5, Half-Head, men, 3 months): remarkable effects of preventing graying of the hair and restoring grayed hair to its natural color
